# ChEMBL document CHEMBL4251553, “Synthesis, anticancer evaluation and pharmacokinetic study of novel 10-O-phenyl ethers of dihydroartemisinin” (Eur J Med Chem, 2017)
# Tests used:
# Assay type in all cases: functional
# [1] = tested on: NCI/ADR-RES; assay: Antiproliferative activity against human MCF7/ADR cells after 96 hrs by MTT assay
# [2] = Selectivity ratio of GI50 for human MCF7 cells to GI50 for human MCF7/ADR cells
# [3] = tested on: MCF7; assay: Antiproliferative activity against human MCF7 cells after 96 hrs by MTT assay; settings: MCF7, 96 h
# [4] = tested on: MDA-MB-231; assay: Antiproliferative activity against human MDA-MB-231 cells after 96 hrs by MTT assay; settings: MDA-MB-231, 96 h
Structure (SMILES),GI50 [1] [nM],RatioGI50 [2],GI50 [3] [nM],GI50 [4] [nM]
C[C@H]1[C@H](Oc2ccc(-c3cc(-c4ccc(Cl)cc4)[nH]n3)cc2)O[C@@H]2O[C@@]3(C)CC[C@H]4[C@H](C)CC[C@@H]1[C@@]24OO3,31,14.2,440,630
C[C@H]1[C@@H](Oc2ccc(-c3cc(-c4ccc(Cl)cc4)[nH]n3)cc2)O[C@@H]2O[C@@]3(C)CC[C@H]4[C@H](C)CC[C@@H]1[C@@]24OO3,55,3.6,190,920
CC(=O)N1N=C(c2ccc(O[C@@H]3O[C@@H]4O[C@@]5(C)CC[C@H]6[C@H](C)CC[C@@H]([C@H]3C)[C@@]46OO5)cc2)CC1c1ccccc1 (stereo partly specified),50,14.2,570,1230
COc1ccc(C2CC(c3ccc(O[C@H]4O[C@@H]5O[C@@]6(C)CC[C@H]7[C@H](C)CC[C@@H]([C@H]4C)[C@@]57OO6)cc3)=NN2C(C)=O)cc1 (stereo partly specified),28,11.4,320,500
C[C@H]1[C@H](Oc2ccc(-c3cc(-c4ccccc4)[nH]n3)cc2)O[C@@H]2O[C@@]3(C)CC[C@H]4[C@H](C)CC[C@@H]1[C@@]24OO3,19,13.7,260,960
COc1cccc2c1C(=O)c1c(O)c3c(c(O)c1C2=O)C[C@@](O)(C(=O)CO)C[C@@H]3O[C@H]1C[C@H](N)[C@H](O)[C@H](C)O1.Cl [DOXORUBICIN HYDROCHLORIDE],540,0.1,54,120
CC(=O)N1N=C(c2ccc(O[C@@H]3O[C@@H]4O[C@@]5(C)CC[C@H]6[C@H](C)CC[C@@H]([C@H]3C)[C@@]46OO5)cc2)CC1c1ccc(Br)cc1 (stereo partly specified),150,6.5,980,580
CC(=O)N1N=C(c2ccc(O[C@H]3O[C@@H]4O[C@@]5(C)CC[C@H]6[C@H](C)CC[C@@H]([C@H]3C)[C@@]46O5)cc2)CC1c1ccccc1 (stereo partly specified),–,–,11000,–
COc1ccc(C2CC(c3ccc(O[C@@H]4O[C@@H]5O[C@@]6(C)CC[C@H]7[C@H](C)CC[C@@H]([C@H]4C)[C@@]57OO6)cc3)=NN2C(C)=O)c(OC)c1 (stereo partly specified),58,6.6,380,580
Oc1ccc(-c2cc(-c3ccccc3)n[nH]2)cc1,18200,1.66,21200,–
C[C@H]1[C@@H](Oc2ccc(-c3cc(-c4ccc(Br)cc4)[nH]n3)cc2)O[C@@H]2O[C@@]3(C)CC[C@H]4[C@H](C)CC[C@@H]1[C@@]24OO3,33,10.3,340,410
C[C@@H]1CC[C@H]2[C@@H](C)C(O)O[C@@H]3O[C@@]4(C)CC[C@@H]1[C@]32O4 (stereo partly specified),–,–,> 400000,–
